Where two headings read alike, the source gives them in different places.
Legend:
Cdk2 [1] = target: T1, Cdk2 (Homo sapiens, UniProt P24941, A93C/C118A/C177S/R157C)
Cdk2 [2] = target: T1, Cdk2; assay type: binding
Cdk2 [3] = target: Cdk2 (Homo sapiens, UniProt P24941, A93C/C118A/C177S/S46C)
Cdk2 [4] = tested on: Cdk2; parameters: species or system Human
pCdk4:cyclinD = pCdk4:cyclinD (Homo sapiens, UniProt P11802); experiment: γ-33P radioactivity kinase assay with RB as substrate and 10 μM ATP; assay type: biochemical
cells = conditions: cited from earlier work

Sequence of pCdk4:cyclinD (P11802 whole entry): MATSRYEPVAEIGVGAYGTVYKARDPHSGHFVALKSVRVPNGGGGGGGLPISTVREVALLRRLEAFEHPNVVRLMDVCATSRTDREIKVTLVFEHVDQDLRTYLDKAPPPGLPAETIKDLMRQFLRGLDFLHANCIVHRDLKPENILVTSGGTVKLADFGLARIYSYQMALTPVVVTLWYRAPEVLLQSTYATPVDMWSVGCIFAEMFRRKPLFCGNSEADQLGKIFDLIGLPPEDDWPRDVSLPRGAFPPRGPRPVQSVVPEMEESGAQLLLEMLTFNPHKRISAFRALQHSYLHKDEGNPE
Sequence of pCdk4:cyclinD (P24385 whole entry partner): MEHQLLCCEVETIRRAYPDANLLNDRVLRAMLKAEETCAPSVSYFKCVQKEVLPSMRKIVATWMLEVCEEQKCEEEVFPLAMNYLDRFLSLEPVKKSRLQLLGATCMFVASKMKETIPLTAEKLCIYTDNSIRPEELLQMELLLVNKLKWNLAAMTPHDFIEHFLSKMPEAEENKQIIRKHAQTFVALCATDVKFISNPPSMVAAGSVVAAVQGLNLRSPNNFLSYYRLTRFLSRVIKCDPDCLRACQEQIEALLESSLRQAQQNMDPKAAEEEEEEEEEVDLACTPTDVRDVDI

Compound: Nc1ncnc2c1ncn2[C@@H]1O[C@H](COP(=O)(O)OP(=O)(O)O)[C@@H](O)[C@H]1O [ADP]
- conformational effect on the A-loop (DEER) (Cdk2 [1]; monomeric Cdk2, inhibitor 250 µM): promoted the Aloop-out state

Compound: CN1CC[C@H](c2c(O)cc(O)c3c(=O)cc(-c4ccccc4Cl)oc23)[C@H](O)C1 [flavopiridol]
- binding cooperativity between inhibitor and cyclin (Cdk2 [2]): 50 fold
- conformational effect on the A-loop (DEER) (Cdk2 [1]): increased the Aloop-out1 subpopulation
- conformational effect on the αC-helix (DEER) (Cdk2 [3]): population shifts toward the αC-in state
- conformational effect on the A-loop (DEER) (Cdk2 [4]): promoted the Aloop-out2 subpopulation

Compound: CCN1CCN(Cc2ccc(Nc3ncc(F)c(-c4cc(F)c5nc(C)n(C(C)C)c5c4)n3)nc2)CC1 [abemaciclib]
- potency for Cdk4 compared with palbociclib or ribociclib (pCdk4:cyclinD): greater potency
- Cdk1 substrate phosphorylation in cells (cells): blocks Cdk1 substrate phosphorylation
- cell cycle effect in cells (cells): triggers a G2 arrest

Compound: CN(C)C(=O)c1cc2cnc(Nc3ccc(N4CCNCC4)cn3)nc2n1C1CCCC1 [ribociclib]
- binding cooperativity with cyclin (in words) (Cdk2 [2]): lacked substantial binding cooperativity with cyclin
- effect on the Aloop-in/out equilibrium (FRET) (Cdk2 [2]): did not promote the Aloop-out state

Compound: CC(=O)c1c(C)c2cnc(Nc3ccc(N4CCNCC4)cn3)nc2n(C2CCCC2)c1=O [palbociclib]
- effect on the Aloop-in/out equilibrium (FRET) (Cdk2 [2]; Fig. 4d): did not promote the Aloop-out state
- binding cooperativity with cyclin (in words) (Cdk2 [2]; Fig. 4d, cyclinA): lacked substantial binding cooperativity with cyclin
